These results are taken from the supplement of paper PMC6045584.

± gives the standard deviation of the averaged measurements.

Compound in test [1]: CCc1cc(Nc2nccc(-c3c(-c4ccc(OC)c(C(=O)Nc5c(F)cccc5F)c4)nc4ccccn34)n2)c(OC)cc1N1CCC(N2CCN(S(C)(=O)=O)CC2)CC1
As to the kind of experiment: surviving fraction relative to DMSO-only wells; higher = less growth inhibition. Particulars: exposure time: 5 days. An outline of the steps:
(§1)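 Log-phase tumour cells were seeded at 250–500 per well in 384-well plates and, from 24 hours after seeding, exposed continuously for five days to inhibitors at 0.5, 1, 5, 10, 50, 100, 500 and 1000 nM. Surviving fraction is CellTiter-Glo luminescence normalised to the median of DMSO-only wells. Luminescence was measured after 10 minutes at room temperature, and only lines screened three times with replicate Pearson r >0.7 and median Z' >0.3 were kept.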

Compound in a further test: Cn1ncnc1[C@H]1c2n[nH]c(=O)c3cc(F)cc(c23)N[C@@H]1c1ccc(F)cc1 [BMN-673]
The description is as above. Particulars: exposure time: 5 days. An outline of the steps: as §1

CAL72 BONE: the surviving fraction worked out at 1.06 ± 0.033 in test [1] (0.5 nM); 1.02 ± 0.026 in test [1] (1 nM); 1.03 ± 0.017 in test [1] (5 nM); 1.05 ± 0.025 in test [1] (10 nM); 1.08 ± 0.035 in test [1] (50 nM); 1.12 ± 0.032 in test [1] (100 nM). Further, the surviving fraction in test [1] (500 nM) stood at 1.13 ± 0.029; in test [1] (1000 nM), 1.13 ± 0.033; with BMN-673 (0.5 nM), 1.08 ± 0.13; with BMN-673 (1 nM), 1.07 ± 0.027; with BMN-673 (5 nM), 1.07 ± 0.018; in the test with BMN-673 (10 nM) it was 1.09 ± 0.09. For the same test system, the surviving fraction in the test with BMN-673 (50 nM) was determined as 1.07 ± 0.082; in the test with BMN-673 (100 nM), 0.973 ± 0.22; with BMN-673 (500 nM), 0.776 ± 0.19; with BMN-673 (1000 nM), 0.509 ± 0.21.

With SUM149.B1*.S BREAST, the surviving fraction in test [1] (0.5 nM) was 0.994 ± 0.024; in test [1] (1 nM) it was 1.05 ± 0.033; in test [1] (5 nM), 1.05 ± 0.051; in test [1] (10 nM) it was 1.1 ± 0.02; in test [1] (50 nM), 1.01 ± 0.047; in test [1] (100 nM), 1.081 ± 0.01. The surviving fraction in test [1] (500 nM) was 1.05 ± 0.082; in test [1] (1000 nM), 1.04 ± 0.048; in the test with BMN-673 (0.5 nM), 1.11 ± 0.036; with BMN-673 (1 nM), 1.03 ± 0.0064; in the test with BMN-673 (5 nM) it was 1.05 ± 0.058; with BMN-673 (10 nM) it was 0.931 ± 0.059. Also, the surviving fraction in the test with BMN-673 (50 nM) was 0.808 ± 0.055; in the test with BMN-673 (100 nM), 0.739 ± 0.063; with BMN-673 (500 nM), 0.451 ± 0.075; with BMN-673 (1000 nM) it was 0.33 ± 0.052.

CHLA90 AUTONOMIC GANGLIA: the surviving fraction amounted to 0.955 ± 0.039 in test [1] (0.5 nM); 1 ± 0.011 in test [1] (1 nM); 0.969 ± 0.054 in test [1] (5 nM); 0.932 ± 0.028 in test [1] (10 nM); 0.9353 ± 0.0021 in test [1] (50 nM); 0.94 ± 0.05 in test [1] (100 nM). Besides, the surviving fraction was determined as 0.986 ± 0.031 in test [1] (500 nM); 0.952 ± 0.055 in test [1] (1000 nM); 0.939 ± 0.01 with BMN-673 (0.5 nM); 0.982 ± 0.068 with BMN-673 (1 nM); 0.906 ± 0.051 in the test with BMN-673 (5 nM); 0.897 ± 0.045 with BMN-673 (10 nM). For the same test system, the surviving fraction with BMN-673 (50 nM) was determined as 0.938 ± 0.086; with BMN-673 (100 nM) it was 0.906 ± 0.083; in the test with BMN-673 (500 nM) it was 0.814 ± 0.04; with BMN-673 (1000 nM) it was 0.714 ± 0.026.

With YAMATO SYNOVIAL, the surviving fraction was determined as 1.32 ± 0.085 in test [1] (0.5 nM); 1.34 ± 0.1 in test [1] (1 nM); 1.44 ± 0.085 in test [1] (5 nM); 1.28 ± 0.023 in test [1] (10 nM); 1.36 ± 0.066 in test [1] (50 nM); 1.42 ± 0.1 in test [1] (100 nM). Also, the surviving fraction came to 1.2 ± 0.19 in test [1] (500 nM); 0.873 ± 0.091 in test [1] (1000 nM); 1.08 ± 0.09 in the test with BMN-673 (0.5 nM); 1.05 ± 0.035 in the test with BMN-673 (1 nM); 1.05 ± 0.07 with BMN-673 (5 nM); 0.852 ± 0.039 in the test with BMN-673 (10 nM). Moreover, the surviving fraction in the test with BMN-673 (50 nM) turned out to be 0.788 ± 0.014; in the test with BMN-673 (100 nM) it was 0.675 ± 0.035; with BMN-673 (500 nM) it was 0.503 ± 0.029; in the test with BMN-673 (1000 nM) it was 0.452 ± 0.013.

Regarding LM7 BONE, the surviving fraction is 0.918 ± 0.051 in test [1] (0.5 nM); 0.885 ± 0.043 in test [1] (1 nM); 0.997 ± 0.08 in test [1] (5 nM); 0.97 ± 0.074 in test [1] (10 nM); 1.1 ± 0.11 in test [1] (50 nM); 1.01 ± 0.081 in test [1] (100 nM). Moreover, the surviving fraction came to 0.898 ± 0.013 in test [1] (500 nM); 0.758 ± 0.03 in test [1] (1000 nM); 0.975 ± 0.042 with BMN-673 (0.5 nM); 0.987 ± 0.068 in the test with BMN-673 (1 nM); 0.764 ± 0.051 with BMN-673 (5 nM); 0.573 ± 0.028 with BMN-673 (10 nM). Moreover, the surviving fraction with BMN-673 (50 nM) came to 0.395 ± 0.027; in the test with BMN-673 (100 nM), 0.312 ± 0.028; with BMN-673 (500 nM), 0.227 ± 0.015; in the test with BMN-673 (1000 nM), 0.197 ± 0.024.

On to HCT15 LARGE INTESTINE, for which the surviving fraction in test [1] (0.5 nM) was found to be 0.963 ± 0.028; in test [1] (1 nM) it was 0.995 ± 0.028; in test [1] (5 nM) it was 0.99 ± 0.027; in test [1] (10 nM), 1.03 ± 0.03; in test [1] (50 nM) it was 1 ± 0.02; in test [1] (100 nM), 1.05 ± 0.016. For the same test system, the surviving fraction in test [1] (500 nM) came out at 1.12 ± 0.036; in test [1] (1000 nM) it was 1.06 ± 0.017; with BMN-673 (0.5 nM), 1.09 ± 0.078; in the test with BMN-673 (1 nM), 1.03 ± 0.086; with BMN-673 (5 nM), 1.06 ± 0.015; with BMN-673 (10 nM) it was 0.945 ± 0.021. The surviving fraction worked out at 0.584 ± 0.14 with BMN-673 (50 nM), 0.44 ± 0.058 with BMN-673 (100 nM), 0.146 ± 0.022 with BMN-673 (500 nM) and 0.102 ± 0.0078 in the test with BMN-673 (1000 nM).

Consider SG27 HEADNECK, for which the surviving fraction in test [1] (0.5 nM) came to 1.04 ± 0.066; in test [1] (1 nM), 0.999 ± 0.11; in test [1] (5 nM) it was 1.06 ± 0.065; in test [1] (10 nM) it was 1.13 ± 0.057; in test [1] (50 nM), 1.05 ± 0.065; in test [1] (100 nM) it was 1.17 ± 0.19. Besides, the surviving fraction in test [1] (500 nM) worked out at 1.2 ± 0.034; in test [1] (1000 nM), 1.15 ± 0.071; in the test with BMN-673 (0.5 nM), 1.15 ± 0.04; with BMN-673 (1 nM), 1.08 ± 0.11; in the test with BMN-673 (5 nM), 1.06 ± 0.046; in the test with BMN-673 (10 nM) it was 0.978 ± 0.12. Moreover, the surviving fraction in the test with BMN-673 (50 nM) turned out to be 1.02 ± 0.17; with BMN-673 (100 nM), 0.927 ± 0.12; with BMN-673 (500 nM), 0.917 ± 0.038; with BMN-673 (1000 nM) it was 0.877 ± 0.16.

For MG63 BONE, the surviving fraction in test [1] (0.5 nM) was 0.953 ± 0.012; in test [1] (1 nM) it was 0.987 ± 0.028; in test [1] (5 nM) it was 1.005 ± 0.01; in test [1] (10 nM) it was 1.06 ± 0.026; in test [1] (50 nM), 0.968 ± 0.034; in test [1] (100 nM) it was 1.01 ± 0.014. Moreover, the surviving fraction in test [1] (500 nM) was determined as 0.956 ± 0.029; in test [1] (1000 nM) it was 0.976 ± 0.047; in the test with BMN-673 (0.5 nM) it was 1.03 ± 0.023; with BMN-673 (1 nM), 0.988 ± 0.026; with BMN-673 (5 nM), 0.989 ± 0.028; with BMN-673 (10 nM), 0.917 ± 0.017. For the same test system, the surviving fraction in the test with BMN-673 (50 nM) was 0.646 ± 0.014; with BMN-673 (100 nM) it was 0.432 ± 0.039; with BMN-673 (500 nM), 0.285 ± 0.0053; with BMN-673 (1000 nM), 0.193 ± 0.029.
